According to ChEMBL document CHEMBL5465560, “Selectivity Literature for EUbOPEN Chemogenomic Library” (2024):

How the values were obtained:
[1] = molecular target: T1, Interleukin-1 receptor-associated kinase 4 (Homo sapiens) (UniProt Q9NWZ3); test: Selectivity interaction (Ambit KINOMEscan and KiNATiv profiling in Jurkat cells) EUB0000090b IRAK4; format: cell-based; conditions: at 1 µM
T1 sequence (whole entry): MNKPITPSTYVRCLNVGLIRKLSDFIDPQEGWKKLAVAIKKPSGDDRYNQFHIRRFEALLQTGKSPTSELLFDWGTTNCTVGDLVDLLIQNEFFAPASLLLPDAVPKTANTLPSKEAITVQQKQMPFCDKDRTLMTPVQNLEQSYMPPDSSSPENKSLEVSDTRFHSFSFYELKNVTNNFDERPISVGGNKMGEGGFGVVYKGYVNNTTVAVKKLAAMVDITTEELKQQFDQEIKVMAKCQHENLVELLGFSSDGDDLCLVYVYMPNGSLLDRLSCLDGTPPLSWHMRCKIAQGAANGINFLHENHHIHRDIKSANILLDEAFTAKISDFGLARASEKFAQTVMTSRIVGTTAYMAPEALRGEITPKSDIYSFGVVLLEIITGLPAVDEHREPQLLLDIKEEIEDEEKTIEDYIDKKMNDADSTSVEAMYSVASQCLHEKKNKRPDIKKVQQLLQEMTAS

[2] = molecular target: T2, Serine/threonine-protein kinase PLK4 (Homo sapiens) (UniProt O00444); test: Selectivity interaction (KinomeScan (DiscoverX)) EUB0000695a PLK4; conditions: at 100 nM
T2 sequence (whole entry): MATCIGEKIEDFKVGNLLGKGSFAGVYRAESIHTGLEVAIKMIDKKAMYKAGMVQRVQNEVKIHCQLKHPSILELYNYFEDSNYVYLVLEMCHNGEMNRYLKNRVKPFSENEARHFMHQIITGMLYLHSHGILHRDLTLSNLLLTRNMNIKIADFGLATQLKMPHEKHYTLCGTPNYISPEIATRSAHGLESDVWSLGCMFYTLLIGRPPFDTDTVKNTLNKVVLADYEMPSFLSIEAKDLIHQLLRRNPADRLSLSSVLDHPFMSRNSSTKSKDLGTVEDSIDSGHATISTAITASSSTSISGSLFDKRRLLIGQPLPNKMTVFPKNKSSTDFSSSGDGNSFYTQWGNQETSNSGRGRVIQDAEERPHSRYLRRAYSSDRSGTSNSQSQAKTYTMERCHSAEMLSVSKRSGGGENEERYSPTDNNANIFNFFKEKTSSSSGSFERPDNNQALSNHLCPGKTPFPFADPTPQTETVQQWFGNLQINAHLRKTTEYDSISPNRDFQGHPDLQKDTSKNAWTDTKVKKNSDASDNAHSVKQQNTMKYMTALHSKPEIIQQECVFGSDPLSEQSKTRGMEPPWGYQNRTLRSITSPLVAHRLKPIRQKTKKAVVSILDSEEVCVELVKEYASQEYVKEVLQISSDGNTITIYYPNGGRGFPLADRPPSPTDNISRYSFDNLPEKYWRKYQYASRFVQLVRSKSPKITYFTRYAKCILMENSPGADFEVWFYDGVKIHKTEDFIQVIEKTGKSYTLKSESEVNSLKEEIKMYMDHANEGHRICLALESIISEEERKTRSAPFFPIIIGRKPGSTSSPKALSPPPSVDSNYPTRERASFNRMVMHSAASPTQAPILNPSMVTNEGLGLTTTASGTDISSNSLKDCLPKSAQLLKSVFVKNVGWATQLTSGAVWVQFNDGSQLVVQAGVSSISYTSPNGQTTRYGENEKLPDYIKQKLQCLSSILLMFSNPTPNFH

[3] = molecular target: T3, cGMP-dependent protein kinase 2 (Homo sapiens) (UniProt Q13237); test: Selectivity interaction (KinomeScan (DiscoverX)) EUB0000229b PRKG2; conditions: at 10 µM
T3 sequence (whole entry): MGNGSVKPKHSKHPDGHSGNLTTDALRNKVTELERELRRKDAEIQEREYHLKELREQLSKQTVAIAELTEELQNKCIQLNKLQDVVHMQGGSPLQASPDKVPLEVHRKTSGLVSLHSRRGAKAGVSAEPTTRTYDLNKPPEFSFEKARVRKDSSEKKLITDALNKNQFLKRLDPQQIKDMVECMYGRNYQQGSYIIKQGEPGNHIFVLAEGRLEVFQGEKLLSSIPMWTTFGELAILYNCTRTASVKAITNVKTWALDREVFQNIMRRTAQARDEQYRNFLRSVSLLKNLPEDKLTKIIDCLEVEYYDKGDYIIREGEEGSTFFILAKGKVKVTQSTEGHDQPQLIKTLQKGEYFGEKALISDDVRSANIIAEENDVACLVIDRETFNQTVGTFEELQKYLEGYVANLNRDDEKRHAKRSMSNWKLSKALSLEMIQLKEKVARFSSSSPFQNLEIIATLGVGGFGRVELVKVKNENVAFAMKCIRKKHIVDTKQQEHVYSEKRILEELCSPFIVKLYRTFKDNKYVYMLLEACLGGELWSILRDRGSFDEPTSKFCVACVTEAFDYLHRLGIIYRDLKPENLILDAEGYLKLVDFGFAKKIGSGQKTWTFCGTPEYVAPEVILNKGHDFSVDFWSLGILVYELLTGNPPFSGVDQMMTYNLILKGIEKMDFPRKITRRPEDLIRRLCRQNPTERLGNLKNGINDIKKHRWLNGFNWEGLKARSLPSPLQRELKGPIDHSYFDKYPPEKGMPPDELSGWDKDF

[4] = molecular target: Serine/threonine-protein kinase NIM1 (Homo sapiens, UniProt Q8IY84); test: Selectivity interaction (KinomeScan (DiscoverX)) EUB0000655a NIM1K; conditions: at 10 µM
Serine/threonine-protein kinase NIM1, sequence (Q8IY84 whole entry): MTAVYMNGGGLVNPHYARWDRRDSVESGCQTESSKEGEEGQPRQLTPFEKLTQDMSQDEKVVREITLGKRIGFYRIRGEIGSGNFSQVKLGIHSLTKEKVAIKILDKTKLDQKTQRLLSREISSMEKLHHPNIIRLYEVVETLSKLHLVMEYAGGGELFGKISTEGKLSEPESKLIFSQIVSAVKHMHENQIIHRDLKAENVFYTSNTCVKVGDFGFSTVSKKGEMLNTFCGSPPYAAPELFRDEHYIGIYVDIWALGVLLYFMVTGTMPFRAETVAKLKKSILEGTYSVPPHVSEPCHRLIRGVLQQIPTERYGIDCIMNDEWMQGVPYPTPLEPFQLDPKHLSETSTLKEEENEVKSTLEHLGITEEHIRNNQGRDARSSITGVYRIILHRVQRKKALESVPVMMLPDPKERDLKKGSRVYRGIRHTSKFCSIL

[5] = molecular target: Calcium/calmodulin-dependent protein kinase type II subunit beta (Homo sapiens) (UniProt Q13554); test: Selectivity interaction (SelectScreen profiling (Invitrogen)) EUB0000607a CAMK2B; conditions: at 2 µM
Calcium/calmodulin-dependent protein kinase type II subunit beta (Homo sapiens), sequence (Q13554 whole entry): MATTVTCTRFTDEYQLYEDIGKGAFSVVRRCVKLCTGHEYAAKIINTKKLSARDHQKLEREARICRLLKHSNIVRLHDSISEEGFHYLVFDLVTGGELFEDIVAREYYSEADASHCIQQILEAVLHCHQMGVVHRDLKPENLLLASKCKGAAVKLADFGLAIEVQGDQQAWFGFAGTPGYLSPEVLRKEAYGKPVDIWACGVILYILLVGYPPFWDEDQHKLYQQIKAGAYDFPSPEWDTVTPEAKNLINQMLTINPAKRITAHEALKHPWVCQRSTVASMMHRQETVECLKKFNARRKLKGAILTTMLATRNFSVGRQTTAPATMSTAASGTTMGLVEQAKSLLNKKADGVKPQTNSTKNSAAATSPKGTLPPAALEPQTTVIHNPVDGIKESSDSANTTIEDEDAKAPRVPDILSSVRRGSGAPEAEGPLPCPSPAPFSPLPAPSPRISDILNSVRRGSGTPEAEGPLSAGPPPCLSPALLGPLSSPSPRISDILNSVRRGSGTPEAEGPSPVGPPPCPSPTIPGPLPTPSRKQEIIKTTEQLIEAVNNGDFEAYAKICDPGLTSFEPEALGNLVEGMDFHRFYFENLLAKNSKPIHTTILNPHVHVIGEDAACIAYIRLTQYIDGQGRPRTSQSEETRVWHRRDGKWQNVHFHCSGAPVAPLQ

CN(C)C/C=C/C(=O)Nc1ccc(C(=O)N2CCCC(Nc3ncc(Cl)c(-c4c[nH]c5ccccc45)n3)C2)cc1 (stereo not given)
% of control [1]: 99%

Cc1cc(F)c(C(=O)Nc2cccc(-c3nncn3C(C)C)n2)cc1-n1cnc(C2CC2)c1
% of control [2]: 100%

COc1cc(N(C)c2ccnc3ccc(C(F)(F)F)cc23)cc(OC)c1OC
% binding [3]: 78%

CN(C)CCOc1ccc(-c2nc(-c3ccncc3)c(-c3ccc4c(c3)CC/C4=N\O)[nH]2)cc1
% of control [4]: 91%

CNC(=O)Nc1ccc(-c2nc(N3CC4CCC(C3)O4)c3cnn(C4CCC5(CC4)OCCO5)c3n2)cc1
% of inhibition [5]: 8%
